# Experimental data from patent US20240285598A1 (priority 2021, published 2024).
# System: SARS-CoV-2
# Experiment: Antiviral assay (viral RNA in culture supernatant by RT-qPCR)
# Details: Severe acute respiratory syndrome coronavirus 2, 72 h, read-out: CC50 (Antiviral Data), MOI of 0.05, 72 h, 96-well plate, RT-qPCR of viral RNA
row,SMILES,CC50 [µM]
1,CC(C)(C)[C@H](NC(=O)C(Cl)(Cl)Cl)C(=O)N1C[C@H]2[C@@H]([C@H]1C(=O)N[C@H](C#N)C[C@@H]1CCCNC1=O)C2(C)C,> 100
2,CCCN(CCC)[C@@H]1C[C@@H](C(=O)NC(C#N)C[C@@H]2CCNC2=O)N(C(=O)[C@@H](NC(=O)C(F)(F)F)C(C)(C)C)C1 (stereo partly drawn),> 100
3,CCCN(CCC)[C@@H]1C[C@@H](C(=O)NC(C#N)C[C@@H]2CCNC2=O)N(C(=O)C(C)(C)NC(=O)C(F)(F)F)C1 (stereo partly drawn),> 100
4,CC(C)(C)OC(=O)N1C[C@H]2[C@@H]([C@H]1C(=O)N[C@H](C#N)C[C@@H]1CCNC1=O)C2(C)C,> 100
5,CCCN(CCC)[C@@H]1C[C@@H](C(=O)NC(C#N)C[C@@H]2CCNC2=O)N(C(=O)[C@@H](NC(=O)NC(C)(C)C)C(C)(C)C)C1 (stereo partly drawn),> 100
6,CC(C)(C)[C@H](NC(=O)C(F)(F)F)C(=O)N1Cc2ccccc2CC1C(=O)N[C@@H](C#N)C[C@@H]1CCNC1=O (stereo partly drawn),> 100
7,CCCN(CCC)[C@@H]1C[C@@H](C(=O)NC(C#N)C[C@@H]2CCNC2=O)N(C(=O)[C@@H](NC(=O)OCc2ccccc2)C(C)(C)C)C1 (stereo partly drawn),10.1 to 100
8,CCCN(CCC)[C@@H]1C[C@@H](C(=O)NC(C#N)C[C@@H]2CCNC2=O)N(C(=O)C(C)(C)NC(=O)OCc2ccccc2)C1 (stereo partly drawn),> 100
9,CC(C)(C)[C@H](NC(=O)C(F)(F)F)C(=O)N1C[C@H]2[C@@H]([C@H]1C(=O)NC(C#N)Cc1cn[nH]c1O)C2(C)C (stereo partly drawn),> 100
10,CC(C)(C)C(NC(=O)OCc1ccncc1)C(=O)N1C[C@H]2[C@@H]([C@H]1C(=O)N[C@H](C#N)C[C@@H]1CCCNC1=O)C2(C)C (stereo partly drawn),1 to 10
11,CC(C)O[C@@H]1C[C@@H](C(=O)NC(C#N)C[C@H]2CCNC2=O)N(C(=O)[C@@H](NC(=O)OCc2cccnc2)C(C)(C)C)C1 (stereo partly drawn),> 100
12,CC(C)O[C@@H]1C[C@@H](C(=O)NC(C#N)C[C@H]2CCNC2=O)N(C(=O)[C@@H](NC(=O)OCc2ccccn2)C(C)(C)C)C1 (stereo partly drawn),> 100
13,CC(C)(C)OC(=O)N[C@H](C(=O)N1Cc2ccccc2C[C@H]1C(=O)NC(C#N)CC1CCNC1=O)C(C)(C)C (stereo partly drawn),> 100
14,CCCN(CCC)[C@@H]1C[C@@H](C(=O)NC(C#N)C[C@@H]2CCNC2=O)N(C(=O)[C@@H](NC(=O)OC(C)(C)C)C(C)(C)C)C1 (stereo partly drawn),10.1 to 100
15,CC(C)(C)NC(=O)N[C@H](C(=O)N1C[C@H]2[C@@H]([C@H]1C(=O)NC(C#N)C[C@@H]1CCNC1=O)C2(C)C)C(C)(C)C (stereo partly drawn),> 100
16,Cc1cc(C[C@@H](C#N)NC(=O)[C@@H]2[C@@H]3[C@H](CN2C(=O)[C@H](NC(=O)C2C4CO[C@@H]5OC[C@@H]2C5C4)C(C)(C)C)C3(C)C)[nH]n1 (stereo partly drawn),> 100
17,CC(C)(NC(=O)C(F)(F)F)C(=O)N1C[C@H]2[C@@H]([C@H]1C(=O)N[C@H](C#N)C[C@@H]1CCNC1=O)C2(C)C,> 100
18,CCCN(CCC)[C@@H]1C[C@@H](C(=O)NC(C#N)C[C@@H]2CCNC2=O)N(C(=O)[C@@H](NC(=O)C(Cl)(Cl)Cl)C(C)(C)C)C1 (stereo partly drawn),> 100
19,CCCN(CCC)[C@@H]1C[C@@H](C(=O)NC(C#N)Cc2cc(OS(=O)(=O)c3ccc(C)cc3)n(S(=O)(=O)c3ccc(C)cc3)n2)N(C(=O)[C@@H](NC(=O)C(F)(F)F)C(C)(C)C)C1 (stereo partly drawn),> 100
20,CC(C)(C)[C@H](NC(=O)OCc1ccncc1)C(=O)N1C[C@H]2[C@@H]([C@H]1C(=O)N[C@H](C#N)C[C@@H]1CCNC1=O)C2(C)C,1 to 10
21,CCCO[C@@H]1C[C@@H](C(=O)NC(C#N)C[C@@H]2CCNC2=O)N(C(=O)[C@@H](NC(=O)NC(C)(C)C)C(C)(C)C)C1 (stereo partly drawn),> 100
22,CC(C)(C)C(=O)N[C@H](C(=O)N1C[C@H]2[C@@H]([C@H]1C(=O)N[C@H](C#N)C[C@@H]1CCNC1=O)C2(C)C)C(C)(C)C,1 to 10

row,SMILES,CC50 [µM]
1,CC(C)(C)OC(=O)N[C@H](C(=O)N1CCN(C(=O)OC(C)(C)C)C[C@H]1C(=O)NC(C#N)CC1CCNC1=O)C(C)(C)C (stereo partly drawn),> 100
2,CC(C)(C)[C@H](NC(=O)C(F)(F)F)C(=O)N1C[C@H](N2CCC(F)(F)CC2)C[C@H]1C(=O)NC(C#N)C[C@@H]1CCNC1=O (stereo partly drawn),> 100
3,Cc1cc(C[C@@H](C#N)NC(=O)[C@@H]2[C@@H]3[C@H](CN2C(=O)[C@H](NC(=O)C(F)(F)F)C(C)(C)C)C3(C)C)[nH]n1,10.1 to 100
4,CC(C)(C)[C@H](NC(=O)OCc1ccccc1)C(=O)N1CCC(F)(F)C[C@H]1C(=O)NC(C#N)C[C@@H]1CCNC1=O (stereo partly drawn),10.1 to 100
5,CC(C)O[C@@H]1C[C@@H](C(=O)NC(C#N)C[C@H]2CCNC2=O)N(C(=O)[C@@H](NC(=O)C(F)(F)F)C(C)(C)C)C1 (stereo partly drawn),10.1 to 100
6,CCCO[C@@H]1C[C@@H](C(=O)NC(C#N)C[C@@H]2CCNC2=O)N(C(=O)[C@@H](NC(=O)OC(C)(C)C)C(C)(C)C)C1 (stereo partly drawn),10.1 to 100
7,CCCO[C@@H]1C[C@@H](C(=O)NC(C#N)C[C@@H]2CCNC2=O)N(C(=O)[C@@H](NC(=O)OCc2ccccc2)C(C)(C)C)C1 (stereo partly drawn),1 to 10
8,CC(C)O[C@@H]1C[C@@H](C(=O)NC(C#N)C[C@H]2CCNC2=O)N(C(=O)[C@@H](NC(=O)OC(C)(C)C)C(C)(C)C)C1 (stereo partly drawn),10.1 to 100
9,CC(C)Cc1cc(C[C@@H](C#N)NC(=O)[C@@H]2[C@@H]3[C@H](CN2C(=O)[C@H](NC(=O)C(F)(F)F)C(C)(C)C)C3(C)C)[nH]n1,> 100
10,CC(C)(C)[C@@H](NC(=O)C(F)(F)F)C(=O)N1C[C@H]2[C@@H]([C@H]1C(=O)N[C@H](C#N)Cc1cc(CO)n[nH]1)C2(C)C,> 100
11,CC(C)O[C@@H]1C[C@@H](C(=O)NC(C#N)C[C@H]2CCNC2=O)N(C(=O)[C@@H](NC(=O)C(O)c2ccco2)C(C)(C)C)C1 (stereo partly drawn),> 100
12,CC(C)(C)[C@H](NC(=O)c1ccccc1)C(=O)N1C[C@H]2[C@@H]([C@H]1C(=O)N[C@H](C#N)C[C@@H]1CCNC1=O)C2(C)C [drawing 68],10.1 to 100
13,CCCN(CCC)[C@@H]1C[C@@H](C(=O)NC(C#N)Cc2cn[nH]c2O)N(C(=O)[C@@H](NC(=O)C(F)(F)F)C(C)(C)C)C1 (stereo partly drawn),> 100
14,CC(C)(C)OC(=O)N[C@H](C(=O)N1CCN(C(=O)OC(C)(C)C)CC1C(=O)N[C@@H](C#N)C[C@@H]1CCNC1=O)C(C)(C)C (stereo partly drawn),> 100
15,CC(C)O[C@@H]1C[C@@H](C(=O)NC(C#N)C[C@H]2CCNC2=O)N(C(=O)[C@@H](NC(=O)OCc2ccncc2)C(C)(C)C)C1 (stereo partly drawn),> 100
16,CCCN(CCC)[C@@H]1C[C@@H](C(=O)NC(C#N)C[C@@H]2CCNC2=O)N(C(=O)[C@@H](NC(=O)OCc2ccccn2)C(C)(C)C)C1 (stereo partly drawn),> 100
17,CCCN(CCC)[C@@H]1C[C@@H](C(=O)NC(C#N)C[C@@H]2CCNC2=O)N(C(=O)[C@@H](NC(=O)OCc2cccnc2)C(C)(C)C)C1 (stereo partly drawn),> 100
18,CC(C)(C)[C@H](NC(=O)C(F)(F)F)C(=O)N1CCN(Cc2ccccc2)CC1C(=O)N[C@@H](C#N)C[C@@H]1CCNC1=O (stereo partly drawn),> 100
19,CCCN(CCC)[C@@H]1C[C@@H](C(=O)NC(C#N)C[C@@H]2CCNC2=O)N(C(=O)[C@@H](NC(=O)OCc2ccncc2)C(C)(C)C)C1 (stereo partly drawn),> 100
20,CC(C)(C)[C@H](NC(=O)C(Cl)(Cl)Cl)C(=O)N1C[C@H]2[C@@H]([C@H]1C(=O)N[C@H](C#N)C[C@@H]1CCNC1=O)C2(C)C,> 100
21,CCCN(CCC)[C@@H]1C[C@@H](C(=O)N[C@H](C#N)Cc2cc(C)n[nH]2)N(C(=O)C(NC(=O)C(F)(F)F)C(C)(C)C)C1 (stereo partly drawn),> 100

# Same assay, conditions: read-out: CC50 (Antiviral Data); MOI of 0.05, 72 h, 96-well plate, RT-qPCR of viral RNA
row,SMILES,CC50 [µM]
1,CC(C)(C)[C@H](NC(=O)C(F)(F)F)C(=O)N1C[C@H]2[C@@H]([C@H]1C(=O)N[C@H](C#N)C[C@@H]1CCCNC1=O)C2(C)C [drawing 62],10.1 to 100
2,CC(C)(C)[C@H](NC(=O)C(F)(F)F)C(=O)N1C[C@H]2[C@@H]([C@H]1C(=O)N[C@H](C#N)C[C@@H]1CCNC1=O)C2(C)C [drawing 61],10.1 to 100
3,CC(C)(C)[C@H](NC(=O)C(F)(F)F)C(=O)N1C[C@H]2[C@@H]([C@H]1C(=O)N[C@H](C#N)C[C@@H]1CCNC1=O)C2(C)C [drawing 94],> 100
4,CC(C)(C)[C@H](NC(=O)c1ccccc1)C(=O)N1C[C@H]2[C@@H]([C@H]1C(=O)N[C@H](C#N)C[C@@H]1CCNC1=O)C2(C)C [drawing 101],10.1 to 100
5,CC(C)(C)[C@H](NC(=O)C(F)(F)F)C(=O)N1C[C@H]2[C@@H]([C@H]1C(=O)N[C@H](C#N)C[C@@H]1CCCNC1=O)C2(C)C [drawing 95],1 to 10
